Reference: patent US12319672B2, “Alpha-D-galactopyranoside derivatives” (Idorsia Pharmaceuticals Ltd, priority 2019, dated 2025)

Experiments:
[1] = biological target: human Gal-3 (hGal-3) (Homo sapiens (Human), UniProt P17931); experiment: Competitive binding assay: binding of biotinylated hGal-3 to microplate-adsorbed asialofetuin (ASF); settings: Activity on hGal-3; mean values of several measurements
Experimental: (§1) Evaluation of Compound Inhibitory Activity (IC50)
(§2) The inhibitory activity of compounds is determined in competitive binding assays. This spectrophotometric assay measures the binding of biotinylated human Gal-3 (hGal-3) or human Gal-1 (hGal-1), respectively, to a microplate-adsorbed glycoprotein, asialofetuin (ASF) (Proc Natl Acad Sci USA. 2013 Mar. 26; 110(13):5052-7.). Alternatively, and preferably, a human Gal-1 version in which all six cysteines are substituted by serines may be used.
(§3) Briefly, compounds are serially diluted in DMSO (working dilutions). ASF-coated 384 well plates are supplemented with 22.8 μL/well of biotinylated hGal-3 or hGal-1 in assay buffer (i.e. 300-1000 ng/mL biotinylated hGal-3 or hGal-1) to which 1.2 μL of compound working dilutions are added and mixed.
(§4) Plates are incubated for 3 hours at 4° C., then washed with cold assay buffer (3×50 uL), incubated for 1 hour with 25 μL/well of a streptavidin-peroxidase solution (diluted in assay buffer to 80 ng/mL) at 4° C., followed by further washing steps with assay buffer (3×50 uL). Finally, 25 μL/well of ABTS substrate is added.
(§5) The calculated IC50 values may fluctuate depending on the daily assay performance. Fluctuations of this kind are known to those skilled in the art. IC50 values from several measurements are given as mean values.

[2] = biological target: human Gal-1 (hGal-1); experiment: Competitive binding assay: binding of biotinylated hGal-1 to microplate-adsorbed asialofetuin (ASF); settings: Activities on hGal-1; mean values of several measurements
Sequence of human Gal-1 (hGal-1) (P09382 2-135 limits assumed): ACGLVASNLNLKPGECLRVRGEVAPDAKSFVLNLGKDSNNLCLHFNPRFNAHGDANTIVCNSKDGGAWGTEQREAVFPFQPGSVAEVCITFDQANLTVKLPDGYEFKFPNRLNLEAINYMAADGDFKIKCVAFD
Experimental: as §1, §2, §3, §4, §5

Sequence of human Gal-3 (hGal-3) (P17931 whole entry): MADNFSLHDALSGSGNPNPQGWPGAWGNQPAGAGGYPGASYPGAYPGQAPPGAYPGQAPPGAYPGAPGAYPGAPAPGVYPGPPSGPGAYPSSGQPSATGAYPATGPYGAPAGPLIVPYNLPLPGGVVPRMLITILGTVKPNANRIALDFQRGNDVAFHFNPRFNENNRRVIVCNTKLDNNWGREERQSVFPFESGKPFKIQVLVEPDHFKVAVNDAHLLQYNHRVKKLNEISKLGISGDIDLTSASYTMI

| IC50 [1] [nM] | IC50 [2] [nM] | Structure (SMILES) |
| --- | --- | --- |
| 1570 | 5280 | COc1ccc(N2CC(C[C@H]3O[C@H](CO)[C@H](O)[C@H](n4cc(-c5cc(F)c(F)c(F)c5)nn4)[C@H]3OC)OC2=O)cc1 (mixture of isomers) [Example 5.01, (RS)-5-(((2R,3R,4S,5R,6R)-5-hydroxy-6-(hydroxymethyl)-3-methoxy-4-(4-(3,4,5-trifluorophenyl)-1H-1,2,3-triazol-1-yl)tetrahydro-2H-pyran-2-yl)methyl)-3-(4-methoxyphenyl)oxazolidin-2-one] |
| 1560 | 3550 | CO[C@@H]1[C@@H](n2cc(-c3cc(F)c(F)c(F)c3)nn2)[C@@H](O)[C@@H](CO)O[C@@H]1CC1CN(c2ccc(OC(F)F)cc2)C(=O)O1 (mixture of isomers) [Example 5.02, (RS)-3-(4-(difluoromethoxy)phenyl)-5-(((2R,3R,4S,5R,6R)-5-hydroxy-6-(hydroxymethyl)-3-methoxy-4-(4-(3,4,5-trifluorophenyl)-1H-1,2,3-triazol-1-yl)tetrahydro-2H-pyran-2-yl)methyl)oxazolidin-2-one] |
| 120 | 650 | CO[C@@H]1[C@@H](n2cc(-c3cc(F)c(F)c(F)c3)nn2)[C@@H](O)[C@@H](CO)O[C@@H]1CC1CN(C2CCN(C(C)=O)CC2)C(=O)O1 (mixture of isomers) [Example 5.03, (RS)-3-(1-acetylpiperidin-4-yl)-5-(((2R,3R,4S,5R,6R)-5-hydroxy-6-(hydroxymethyl)-3-methoxy-4-(4-(3,4,5-trifluorophenyl)-1H-1,2,3-triazol-1-yl)tetrahydro-2H-pyran-2-yl)methyl)oxazolidin-2-one] |
| 180 | 790 | CO[C@@H]1[C@@H](n2cc(-c3cc(F)c(F)c(F)c3)nn2)[C@@H](O)[C@@H](CO)O[C@@H]1CC1CN(C2CCN(S(C)(=O)=O)CC2)C(=O)O1 (mixture of isomers) [Example 5.04, (RS)-5-(((2R,3R,4S,5R,6R)-5-hydroxy-6-(hydroxymethyl)-3-methoxy-4-(4-(3,4,5-trifluorophenyl)-1H-1,2,3-triazol-1-yl)tetrahydro-2H-pyran-2-yl)methyl)-3-(1-(methylsulfonyl)piperidin-4-yl)oxazolidin-2-one] |
| 83 | 460 | CO[C@@H]1[C@@H](n2cc(-c3cc(F)c(F)c(F)c3)nn2)[C@@H](O)[C@@H](CO)O[C@@H]1CC1CN(C2CCN(C(=O)OC(C)(C)C)CC2)C(=O)O1 (mixture of isomers) [Example 5.09, tert-butyl 4-((RS)-5-(((2R,3R,4S,5R,6R)-5-hydroxy-6-(hydroxymethyl)-3-methoxy-4-(4-(3,4,5-trifluorophenyl)-1H-1,2,3-triazol-1-yl)tetrahydro-2H-pyran-2-yl)methyl)-2-oxooxazolidin-3-yl)piperidine-1-carboxylate] |
| 190 | 280 | CO[C@@H]1[C@@H](n2cc(-c3cc(F)c(F)c(F)c3)nn2)[C@@H](O)[C@@H](CO)O[C@@H]1CC1CN(C2CCN(C(=O)C(C)C)CC2)C(=O)O1 (mixture of isomers) [Example 5.10, (RS)-5-(((2R,3R,4S,5R,6R)-5-hydroxy-6-(hydroxymethyl)-3-methoxy-4-(4-(3,4,5-trifluorophenyl)-1H-1,2,3-triazol-1-yl)tetrahydro-2H-pyran-2-yl)methyl)-3-(1-isobutyrylpiperidin-4-yl)oxazolidin-2-one] |
| 260 | 1500 | CO[C@@H]1[C@@H](n2cc(-c3cc(F)c(F)c(F)c3)nn2)[C@@H](O)[C@@H](CO)O[C@@H]1CC1CN(C2CCN(C(=O)N(C)C)CC2)C(=O)O1 (mixture of isomers) [Example 5.11, 4-((RS)-5-(((2R,3R,4S,5R,6R)-5-hydroxy-6-(hydroxymethyl)-3-methoxy-4-(4-(3,4,5-trifluorophenyl)-1H-1,2,3-triazol-1-yl)tetrahydro-2H-pyran-2-yl)methyl)-2-oxooxazolidin-3-yl)-N,N-dimethylpiperidine-1-carboxamide] |
